Data published in PubChem BioAssay AID1963986 (Molecular Pharmacology Branch, DTP, NCI, 2024).

System: 171881-019-R-J1-PDC tumor spheroid viability
Test: Anticancer human tumor 171881-019-R-J1-PDC patient-derived invasive breast carcinoma cell line growth inhibition [PI3K]
Settings: spheroids with HUVEC and MSC; for IC50: curve of first compound; for viability, T/C: stronger effect = lower value
In short: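 Multi-cell spheroids combine tumor cells with HUVEC and human MSCs, treated with targeted agents alone or with inavolisib, alpelisib, duvelisib or copanlisib. Concentrations fall in half-log steps from at or near clinical Cmax, or from 10 microM where Cmax is unknown; viability read-out.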

[1] = second compound 0.0316 µM, first compound 0.0316 µM
[2] = second compound 0.0316 µM, first compound 0.1 µM
[3] = second compound 0.0316 µM, first compound 0.316 µM
[4] = second compound 0.0316 µM, first compound 1 µM
[5] = second compound 0.0316 µM, first compound 3.16 µM
[6] = second compound 0.0316 µM, first compound 10 µM
[7] = second compound 0.1 µM, first compound 0.0316 µM
[8] = second compound 0.1 µM, first compound 0.1 µM
[9] = second compound 0.1 µM, first compound 0.316 µM
[10] = second compound 0.1 µM, first compound 1 µM
[11] = second compound 0.1 µM, first compound 3.16 µM
[12] = second compound 0.1 µM, first compound 10 µM
[13] = second compound 0.316 µM, first compound 0.0316 µM
[14] = second compound 0.316 µM, first compound 0.1 µM
[15] = second compound 0.316 µM, first compound 0.316 µM
[16] = second compound 0.316 µM, first compound 1 µM
[17] = second compound 0.316 µM, first compound 3.16 µM
[18] = second compound 0.316 µM, first compound 10 µM
[19] = second compound 1 µM, first compound 0.0316 µM
[20] = second compound 1 µM, first compound 0.1 µM
[21] = second compound 1 µM, first compound 0.316 µM
[22] = second compound 1 µM, first compound 1 µM
[23] = second compound 1 µM, first compound 3.16 µM
[24] = second compound 1 µM, first compound 10 µM
[25] = second compound 3.16 µM, first compound 0.0316 µM
[26] = second compound 3.16 µM, first compound 0.1 µM
[27] = second compound 3.16 µM, first compound 0.316 µM
[28] = second compound 3.16 µM, first compound 1 µM
[29] = second compound 3.16 µM, first compound 3.16 µM
[30] = second compound 3.16 µM, first compound 10 µM
[31] = second compound 10 µM, first compound 0.0316 µM
[32] = second compound 10 µM, first compound 0.1 µM
[33] = second compound 10 µM, first compound 0.316 µM
[34] = second compound 10 µM, first compound 1 µM
[35] = second compound 10 µM, first compound 3.16 µM
[36] = second compound 10 µM, first compound 10 µM
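Note: spheroids exposed to compound for 7 days before viability read.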
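Throughout, for viability, T/C: 100% = DMSO vehicle-treated spheroids.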

`C#Cc1c(F)ccc2cc(O)cc(-c3ncc4c(N5CC6CCC(C5)N6)nc(OCC56CCCN5CC(F)C6)nc4c3F)c12` (centres undefined) + Cc1nc(NC(=O)N2CCCC2C(N)=O)sc1-c1ccnc(C(C)(C)C(F)(F)F)c1 showed an IC50 (second compound 0.0316 µM) of 250 nM, an IC50 (second compound 0.1 µM) of 115 nM and an IC50 (second compound 0.316 µM) of less than 31.6 nM. It also gave an IC50 (second compound 1 µM) of less than 31.6 nM, an IC50 (second compound 3.16 µM) of less than 31.6 nM and an IC50 (second compound 10 µM) of less than 31.6 nM. The viability, T/C [1] was 88.3%, the viability, T/C [2] was 66.7% and the viability, T/C [3] was 44.4%. For the same molecule, the viability, T/C [4] was 32.9%, the viability, T/C [5] was 27.4% and the viability, T/C [6] was 20%. For the same molecule, the viability, T/C [7] was 72.3%, the viability, T/C [8] was 51.2% and the viability, T/C [9] was 37.7%. For the same molecule, the viability, T/C [10] was 26.1%, the viability, T/C [11] was 20.8% and the viability, T/C [12] was 16.4%. The viability, T/C [13] was 46%, the viability, T/C [14] was 30.1% and the viability, T/C [15] was 22.6%. It also gave a viability, T/C [16] of 15.6%, a viability, T/C [17] of 11.7% and a viability, T/C [18] of 10.2%. The viability, T/C [19] was 27.2%, the viability, T/C [20] was 19.1% and the viability, T/C [21] was 13%. It also gave a viability, T/C [22] of 9.14%, a viability, T/C [23] of 7.33% and a viability, T/C [24] of 5.95%. For the same molecule, the viability, T/C [25] was 11%, the viability, T/C [26] was 7.63% and the viability, T/C [27] was 5.67%. It also gave a viability, T/C [28] of 4.44%, a viability, T/C [29] of 4% and a viability, T/C [30] of 1.21%. It also gave a viability, T/C [31] of 2.71%, a viability, T/C [32] of 3.19% and a viability, T/C [33] of 2.3%. For the same molecule, the viability, T/C [34] was 2.05%, the viability, T/C [35] was 1.56% and the viability, T/C [36] was 0.74%.
Work on `CC1(C)CCC(Nc2ncc(C(F)(F)F)c(-c3c[nH]c4c(P(C)(C)=O)c(C#N)ccc34)n2)CN1` (centres undefined) + Cc1nc(NC(=O)N2CCCC2C(N)=O)sc1-c1ccnc(C(C)(C)C(F)(F)F)c1 yielded an IC50 (second compound 0.0316 µM) of 5340 nM, an IC50 (second compound 0.1 µM) of 4400 nM and an IC50 (second compound 0.316 µM) of 1030 nM. It also gave an IC50 (second compound 1 µM) of less than 31.6 nM, an IC50 (second compound 3.16 µM) of less than 31.6 nM and an IC50 (second compound 10 µM) of less than 31.6 nM. The viability, T/C [1] was 66.7%, the viability, T/C [2] was 65% and the viability, T/C [3] was 73.8%. For the same molecule, the viability, T/C [4] was 79.6%, the viability, T/C [5] was 77.5% and the viability, T/C [6] was 22.9%. For the same molecule, the viability, T/C [7] was 59.4%, the viability, T/C [8] was 65% and the viability, T/C [9] was 62.9%. The viability, T/C [10] was 71.4%, the viability, T/C [11] was 63.4% and the viability, T/C [12] was 16.3%. For the same molecule, the viability, T/C [13] was 46.7%, the viability, T/C [14] was 49% and the viability, T/C [15] was 49.6%. For the same molecule, the viability, T/C [16] was 55.5%, the viability, T/C [17] was 47.8% and the viability, T/C [18] was 7.89%. The viability, T/C [19] was 31.4%, the viability, T/C [20] was 30.6% and the viability, T/C [21] was 33.4%. The viability, T/C [22] was 32.7%, the viability, T/C [23] was 28.7% and the viability, T/C [24] was 3.22%. For the same molecule, the viability, T/C [25] was 15.9%, the viability, T/C [26] was 17% and the viability, T/C [27] was 17.7%. The viability, T/C [28] was 18.8%, the viability, T/C [29] was 13.3% and the viability, T/C [30] was 1.08%. For the same molecule, the viability, T/C [31] was 4.21%, the viability, T/C [32] was 4.48% and the viability, T/C [33] was 5.01%. The viability, T/C [34] was 5.05%, the viability, T/C [35] was 2.85% and the viability, T/C [36] was 0.32%.
